What was measured:
[1] = target: Vascular endothelial growth factor receptor 2 (Homo sapiens) (UniProt P35968); details: Compound concentration 1000.0 nM
[2] = target: Serine/threonine-protein kinase NLK (Homo sapiens) (UniProt Q9UBE8); details: Compound concentration 1000.0 nM
[3] = target: Serine/threonine-protein kinase Nek6 (Homo sapiens) (UniProt Q9HC98); details: Compound concentration 1000.0 nM
[4] = target: Mitogen-activated protein kinase kinase kinase 12 (Homo sapiens) (UniProt Q12852); details: Compound concentration 1000.0 nM
[5] = target: Serine/threonine-protein kinase PLK1 (Homo sapiens) (UniProt P53350); details: Compound concentration 1000.0 nM
[6] = system: Proto-oncogene tyrosine-protein kinase receptor Ret (Homo sapiens), P07949 [V804M]; details: Compound concentration 1000.0 nM
[7] = target: Phosphatidylinositol 4-phosphate 3-kinase C2 domain-containing subunit beta (Homo sapiens) (UniProt O00750); details: Compound concentration 1000.0 nM
Sequence of Phosphatidylinositol 4-phosphate 3-kinase C2 domain-containing subunit beta (Homo sapiens) (O00750 whole entry, the tested form may be a part): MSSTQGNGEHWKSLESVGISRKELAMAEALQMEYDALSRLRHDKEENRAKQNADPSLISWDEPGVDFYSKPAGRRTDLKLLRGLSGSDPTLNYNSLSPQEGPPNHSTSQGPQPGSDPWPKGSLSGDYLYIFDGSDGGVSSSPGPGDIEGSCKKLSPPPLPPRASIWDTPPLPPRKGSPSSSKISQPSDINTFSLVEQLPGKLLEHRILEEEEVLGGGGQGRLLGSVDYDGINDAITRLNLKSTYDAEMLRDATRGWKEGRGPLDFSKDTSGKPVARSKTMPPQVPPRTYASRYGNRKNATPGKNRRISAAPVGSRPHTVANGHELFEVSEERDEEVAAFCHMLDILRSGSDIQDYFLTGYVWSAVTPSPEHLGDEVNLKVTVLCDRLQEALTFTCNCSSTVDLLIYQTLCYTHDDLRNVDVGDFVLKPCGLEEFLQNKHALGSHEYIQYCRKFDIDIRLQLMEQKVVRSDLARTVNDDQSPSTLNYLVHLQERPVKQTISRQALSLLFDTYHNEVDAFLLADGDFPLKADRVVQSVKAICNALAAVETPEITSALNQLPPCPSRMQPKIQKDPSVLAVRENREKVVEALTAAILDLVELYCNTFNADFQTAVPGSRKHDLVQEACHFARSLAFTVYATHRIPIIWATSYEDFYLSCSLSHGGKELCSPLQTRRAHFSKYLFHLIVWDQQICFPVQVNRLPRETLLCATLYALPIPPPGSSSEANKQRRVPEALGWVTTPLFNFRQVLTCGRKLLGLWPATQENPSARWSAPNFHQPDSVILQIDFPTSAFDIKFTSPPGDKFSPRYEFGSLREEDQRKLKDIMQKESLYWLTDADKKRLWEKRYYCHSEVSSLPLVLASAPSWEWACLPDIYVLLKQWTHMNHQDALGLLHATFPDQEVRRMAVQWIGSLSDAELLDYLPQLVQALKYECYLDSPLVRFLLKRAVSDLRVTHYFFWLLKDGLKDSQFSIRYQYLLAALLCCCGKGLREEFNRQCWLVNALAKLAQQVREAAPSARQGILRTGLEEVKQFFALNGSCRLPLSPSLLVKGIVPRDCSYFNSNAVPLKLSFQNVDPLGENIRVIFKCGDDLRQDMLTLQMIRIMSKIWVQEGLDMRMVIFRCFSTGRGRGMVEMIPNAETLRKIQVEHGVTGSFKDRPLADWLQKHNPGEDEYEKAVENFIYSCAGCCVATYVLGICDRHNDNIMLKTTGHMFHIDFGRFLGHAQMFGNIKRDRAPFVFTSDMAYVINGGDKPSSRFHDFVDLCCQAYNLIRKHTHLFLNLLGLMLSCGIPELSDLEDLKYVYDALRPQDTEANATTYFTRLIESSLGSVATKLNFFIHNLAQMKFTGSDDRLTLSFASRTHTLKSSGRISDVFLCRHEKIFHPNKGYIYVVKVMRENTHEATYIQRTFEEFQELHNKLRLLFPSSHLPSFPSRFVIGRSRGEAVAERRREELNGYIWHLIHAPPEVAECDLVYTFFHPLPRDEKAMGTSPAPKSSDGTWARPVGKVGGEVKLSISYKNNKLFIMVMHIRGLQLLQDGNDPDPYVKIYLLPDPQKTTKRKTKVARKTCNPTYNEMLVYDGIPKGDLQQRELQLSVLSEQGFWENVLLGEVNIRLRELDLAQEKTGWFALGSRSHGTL

[8] = target: Serine/threonine-protein kinase 38-like (Homo sapiens) (UniProt Q9Y2H1); details: Compound concentration 1000.0 nM
[9] = target: Tyrosine-protein kinase Yes (Homo sapiens) (UniProt P07947); details: Compound concentration 1000.0 nM
[10] = target: Receptor tyrosine-protein kinase erbB-4 (Homo sapiens) (UniProt Q15303); details: Compound concentration 1000.0 nM
[11] = target: Tyrosine-protein kinase JAK3 (Homo sapiens) (UniProt P52333); details: Compound concentration 1000.0 nM
[12] = target: Ribosomal protein S6 kinase alpha-5 (Homo sapiens) (UniProt O75582); details: Compound concentration 1000.0 nM
[13] = target: Dual specificity protein kinase CLK2 (Homo sapiens) (UniProt P49760); details: Compound concentration 1000.0 nM
[14] = target: Focal adhesion kinase 1 (Homo sapiens) (UniProt Q05397); details: Compound concentration 1000.0 nM
[15] = target: TGF-beta receptor type-1 (Homo sapiens) (UniProt P36897); details: Compound concentration 1000.0 nM
[16] = target: Tyrosine-protein kinase SYK (Homo sapiens) (UniProt P43405); details: Compound concentration 1000.0 nM
[17] = target: RAC-gamma serine/threonine-protein kinase (Homo sapiens) (UniProt Q9Y243); details: Compound concentration 1000.0 nM
[18] = target: BMP-2-inducible protein kinase (Homo sapiens) (UniProt Q9NSY1); details: Compound concentration 1000.0 nM
[19] = target: Casein kinase I isoform gamma-1 (Homo sapiens) (UniProt Q9HCP0); details: Compound concentration 1000.0 nM
[20] = target: Mitogen-activated protein kinase kinase kinase kinase 4 (Homo sapiens) (UniProt O95819); details: Compound concentration 1000.0 nM
[21] = target: Histamine H3 receptor (Homo sapiens) (UniProt Q9Y5N1); details: Compound concentration 10.0 uM
[22] = target: MAP/microtubule affinity-regulating kinase 4 (Homo sapiens) (UniProt Q96L34); details: Compound concentration 1000.0 nM
[23] = target: Rhodopsin kinase GRK1 (Homo sapiens) (UniProt Q15835); details: Compound concentration 1000.0 nM
[24] = target: Microtubule-associated serine/threonine-protein kinase 1 (Homo sapiens) (UniProt Q9Y2H9); details: Compound concentration 1000.0 nM
Sequence of Microtubule-associated serine/threonine-protein kinase 1 (Homo sapiens) (Q9Y2H9 whole entry, looked up, canonical isoform): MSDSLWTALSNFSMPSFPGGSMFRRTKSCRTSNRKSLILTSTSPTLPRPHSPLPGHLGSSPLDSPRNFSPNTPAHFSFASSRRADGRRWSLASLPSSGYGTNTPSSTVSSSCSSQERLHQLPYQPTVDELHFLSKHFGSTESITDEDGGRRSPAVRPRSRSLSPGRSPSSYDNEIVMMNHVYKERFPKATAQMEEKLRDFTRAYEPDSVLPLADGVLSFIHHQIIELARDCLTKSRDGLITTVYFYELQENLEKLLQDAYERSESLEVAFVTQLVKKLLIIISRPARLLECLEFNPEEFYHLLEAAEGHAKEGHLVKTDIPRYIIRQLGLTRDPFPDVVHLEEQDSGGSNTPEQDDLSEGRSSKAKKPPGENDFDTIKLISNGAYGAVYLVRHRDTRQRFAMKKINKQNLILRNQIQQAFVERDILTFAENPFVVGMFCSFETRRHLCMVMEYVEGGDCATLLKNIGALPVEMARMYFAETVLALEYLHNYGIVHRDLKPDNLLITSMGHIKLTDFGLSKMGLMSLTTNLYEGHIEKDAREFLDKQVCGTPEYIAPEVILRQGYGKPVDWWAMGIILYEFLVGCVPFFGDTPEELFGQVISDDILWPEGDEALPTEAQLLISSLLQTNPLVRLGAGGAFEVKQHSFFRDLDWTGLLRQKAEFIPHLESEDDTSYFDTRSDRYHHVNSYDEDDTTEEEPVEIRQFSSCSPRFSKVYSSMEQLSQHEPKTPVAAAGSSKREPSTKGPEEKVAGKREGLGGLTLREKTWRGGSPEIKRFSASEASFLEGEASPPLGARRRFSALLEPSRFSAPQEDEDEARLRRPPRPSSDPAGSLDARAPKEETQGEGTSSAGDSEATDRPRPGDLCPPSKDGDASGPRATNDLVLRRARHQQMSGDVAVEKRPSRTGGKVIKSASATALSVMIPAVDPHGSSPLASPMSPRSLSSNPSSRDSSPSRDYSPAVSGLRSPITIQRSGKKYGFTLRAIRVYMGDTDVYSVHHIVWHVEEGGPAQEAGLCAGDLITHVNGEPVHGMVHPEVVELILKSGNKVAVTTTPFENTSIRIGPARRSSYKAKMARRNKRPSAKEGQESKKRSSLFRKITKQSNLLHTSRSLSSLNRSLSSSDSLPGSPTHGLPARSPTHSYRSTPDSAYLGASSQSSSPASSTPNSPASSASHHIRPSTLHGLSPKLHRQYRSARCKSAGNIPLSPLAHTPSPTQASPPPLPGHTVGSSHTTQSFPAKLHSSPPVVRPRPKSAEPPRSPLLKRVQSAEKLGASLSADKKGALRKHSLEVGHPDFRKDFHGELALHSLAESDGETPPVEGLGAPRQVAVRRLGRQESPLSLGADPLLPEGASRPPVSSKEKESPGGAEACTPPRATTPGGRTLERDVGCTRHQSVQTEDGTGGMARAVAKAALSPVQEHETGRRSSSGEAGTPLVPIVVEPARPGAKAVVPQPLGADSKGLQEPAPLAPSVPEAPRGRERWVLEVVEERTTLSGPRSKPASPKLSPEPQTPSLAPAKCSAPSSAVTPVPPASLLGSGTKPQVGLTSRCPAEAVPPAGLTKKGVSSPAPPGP

[25] = target: Casein kinase I isoform delta (Homo sapiens) (UniProt P48730); details: Compound concentration 1000.0 nM
[26] = target: Serine/threonine-protein kinase 36 (Homo sapiens) (UniProt Q9NRP7); details: Compound concentration 1000.0 nM
[27] = system: Epidermal growth factor receptor (Homo sapiens), P00533 [L858R,T790M]; details: Compound concentration 1000.0 nM
[28] = target: Beta-2 adrenergic receptor (Homo sapiens) (UniProt P07550); details: Compound concentration 10.0 uM
Sequence of Beta-2 adrenergic receptor (Homo sapiens) (P07550 whole entry, looked up): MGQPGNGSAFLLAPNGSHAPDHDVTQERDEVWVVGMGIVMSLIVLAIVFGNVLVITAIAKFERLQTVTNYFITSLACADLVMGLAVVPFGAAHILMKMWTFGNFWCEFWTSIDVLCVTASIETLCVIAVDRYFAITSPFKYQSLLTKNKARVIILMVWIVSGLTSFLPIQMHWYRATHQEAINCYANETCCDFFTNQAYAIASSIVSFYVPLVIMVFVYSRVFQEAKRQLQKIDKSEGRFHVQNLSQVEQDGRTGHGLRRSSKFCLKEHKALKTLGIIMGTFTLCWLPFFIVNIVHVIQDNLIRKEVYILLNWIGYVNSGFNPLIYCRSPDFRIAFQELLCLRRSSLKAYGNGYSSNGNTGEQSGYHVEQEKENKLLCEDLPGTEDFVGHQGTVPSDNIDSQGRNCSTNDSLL

[29] = target: Serine/threonine-protein kinase N1 (Homo sapiens) (UniProt Q16512); details: Compound concentration 1000.0 nM
[30] = system: Phosphatidylinositol 4,5-bisphosphate 3-kinase catalytic subunit alpha isoform (Homo sapiens), P42336 [C420R]; details: Compound concentration 1000.0 nM
[31] = target: Serine/threonine-protein kinase mTOR (Homo sapiens) (UniProt P42345); details: Compound concentration 1000.0 nM
[32] = target: TGF-beta receptor type-2 (Homo sapiens) (UniProt P37173); details: Compound concentration 1000.0 nM
[33] = target: Cyclin-G-associated kinase (Homo sapiens) (UniProt O14976); details: Compound concentration 1000.0 nM
[34] = system: Tyrosine-protein kinase ABL1 (Homo sapiens), P00519 [Q252H]; details: Compound concentration 1000.0 nM
[35] = target: Ribosomal protein S6 kinase alpha-4 (Homo sapiens) (UniProt O75676); details: Compound concentration 1000.0 nM
[36] = target: Serine/threonine-protein kinase B-raf (Homo sapiens) (UniProt P15056); details: Compound concentration 1000.0 nM
[37] = target: Cyclin-dependent kinase 17 (Homo sapiens) (UniProt Q00537); details: Compound concentration 1000.0 nM
[38] = target: Dual serine/threonine and tyrosine protein kinase (Homo sapiens) (UniProt Q6XUX3); details: Compound concentration 1000.0 nM
[39] = target: 5-hydroxytryptamine receptor 1D (Homo sapiens) (UniProt P28221); details: Compound concentration 10.0 uM
Sequence of 5-hydroxytryptamine receptor 1D (Homo sapiens) (P28221 whole entry): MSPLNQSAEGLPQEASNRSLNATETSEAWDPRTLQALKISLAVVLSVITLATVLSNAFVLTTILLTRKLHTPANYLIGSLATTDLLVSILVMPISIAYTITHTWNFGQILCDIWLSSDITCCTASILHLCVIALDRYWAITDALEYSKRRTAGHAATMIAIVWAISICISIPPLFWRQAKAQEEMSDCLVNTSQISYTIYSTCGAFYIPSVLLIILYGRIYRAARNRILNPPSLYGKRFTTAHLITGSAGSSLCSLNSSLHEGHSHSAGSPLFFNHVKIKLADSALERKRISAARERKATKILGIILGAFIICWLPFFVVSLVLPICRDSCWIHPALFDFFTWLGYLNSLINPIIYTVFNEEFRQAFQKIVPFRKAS

[40] = target: Maternal embryonic leucine zipper kinase (Homo sapiens) (UniProt Q14680); details: Compound concentration 1000.0 nM
[41] = target: Kappa-type opioid receptor (Homo sapiens) (UniProt P41145); details: Compound concentration 10.0 uM
[42] = target: Mitogen-activated protein kinase 1 (Homo sapiens) (UniProt P28482); details: Compound concentration 1000.0 nM
[43] = target: Cyclin-dependent kinase 11B (Homo sapiens) (UniProt P21127); details: Compound concentration 1000.0 nM
[44] = target: Calcium/calmodulin-dependent protein kinase type 1D (Homo sapiens) (UniProt Q8IU85); details: Compound concentration 1000.0 nM
Sequence of Calcium/calmodulin-dependent protein kinase type 1D (Homo sapiens) (Q8IU85 whole entry, looked up, the tested form may be a part): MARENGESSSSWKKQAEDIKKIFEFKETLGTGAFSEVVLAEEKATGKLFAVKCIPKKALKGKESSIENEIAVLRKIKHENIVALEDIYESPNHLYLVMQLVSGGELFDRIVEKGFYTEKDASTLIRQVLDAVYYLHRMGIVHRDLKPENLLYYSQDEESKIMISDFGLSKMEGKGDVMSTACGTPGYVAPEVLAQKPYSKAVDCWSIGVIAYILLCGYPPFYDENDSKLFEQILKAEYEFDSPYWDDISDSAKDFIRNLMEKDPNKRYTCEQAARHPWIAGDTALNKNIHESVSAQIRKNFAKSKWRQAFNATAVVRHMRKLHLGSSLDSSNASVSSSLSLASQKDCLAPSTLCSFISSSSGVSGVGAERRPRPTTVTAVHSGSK

[45] = target: Discoidin domain-containing receptor 2 (Homo sapiens) (UniProt Q16832); details: Compound concentration 1000.0 nM

Sequence of Serine/threonine-protein kinase NLK (Homo sapiens) (Q9UBE8 whole entry): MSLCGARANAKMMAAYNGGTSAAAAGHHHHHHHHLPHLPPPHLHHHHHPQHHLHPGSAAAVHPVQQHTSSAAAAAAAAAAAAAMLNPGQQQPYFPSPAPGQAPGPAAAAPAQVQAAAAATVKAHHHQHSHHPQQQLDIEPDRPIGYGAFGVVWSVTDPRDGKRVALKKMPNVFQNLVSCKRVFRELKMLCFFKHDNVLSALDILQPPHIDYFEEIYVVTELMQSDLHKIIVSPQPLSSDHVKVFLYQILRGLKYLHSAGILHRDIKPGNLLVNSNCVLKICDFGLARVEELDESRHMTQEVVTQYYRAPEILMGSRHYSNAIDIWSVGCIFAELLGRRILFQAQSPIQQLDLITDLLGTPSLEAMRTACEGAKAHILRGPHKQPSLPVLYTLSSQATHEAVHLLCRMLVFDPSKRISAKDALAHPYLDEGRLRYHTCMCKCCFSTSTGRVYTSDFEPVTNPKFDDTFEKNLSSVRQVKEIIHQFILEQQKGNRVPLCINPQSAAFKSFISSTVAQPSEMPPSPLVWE

O=C(O)[C@@H]1[C@@H](Cn2nnc3ccccc3c2=O)CC[C@H]1C(=O)c1ccc(OCCC2CCOCC2)cc1 [BAY-694]
inactive: residual activity [1] 78% | residual activity [2] 86% | residual activity [3] 100% | residual activity [4] 98% | residual activity [5] 80% | residual activity [6] 100% | residual activity [7] 100% | residual activity [8] 100% | residual activity [9] 100% | residual activity [10] 100% | residual activity [11] 95% | residual activity [12] 100% | residual activity [13] 100% | residual activity [14] 100% | residual activity [15] 100% | residual activity [16] 100% | residual activity [17] 100% | residual activity [18] 100% | residual activity [19] 99% | residual activity [20] 93% | inhibition [21] 4.06% | residual activity [22] 100% | residual activity [23] 100% | residual activity [24] 100% | residual activity [25] 100% | residual activity [26] 91% | residual activity [27] 76% | inhibition [28] 24.4% | residual activity [29] 97% | residual activity [30] 100% | residual activity [31] 96% | residual activity [32] 100% | residual activity [33] 91% | residual activity [34] 92% | residual activity [35] 100% | residual activity [36] 100% | residual activity [37] 88% | residual activity [38] 84% | inhibition [39] 14% | residual activity [40] 85% | inhibition [41] 8.5% | residual activity [42] 93% | residual activity [43] 99% | residual activity [44] 91% | residual activity [45] 100%

O=C(O)[C@H]1[C@H](Cn2nnc3ccccc3c2=O)CC[C@@H]1C(=O)c1ccc(OCCC2CCOCC2)cc1 [BAY-7598]
inactive: residual activity [1] 88% | residual activity [2] 100% | residual activity [3] 100% | residual activity [4] 88% | residual activity [5] 75% | residual activity [6] 96% | residual activity [7] 90% | residual activity [8] 96% | residual activity [9] 100% | residual activity [10] 89% | residual activity [11] 100% | residual activity [12] 100% | residual activity [13] 100% | residual activity [14] 89% | residual activity [15] 90% | residual activity [16] 76% | residual activity [17] 73% | residual activity [18] 86% | residual activity [19] 94% | residual activity [20] 91% | inhibition [21] -2.95% | residual activity [22] 96% | residual activity [23] 97% | residual activity [24] 98% | residual activity [25] 100% | residual activity [26] 100% | residual activity [27] 64% | inhibition [28] 8.44% | residual activity [29] 88% | residual activity [30] 100% | residual activity [31] 100% | residual activity [32] 100% | residual activity [33] 100% | residual activity [34] 83% | residual activity [35] 100% | residual activity [36] 100% | residual activity [37] 74% | residual activity [38] 100% | inhibition [39] 4.82% | residual activity [40] 96% | inhibition [41] -3.04% | residual activity [42] 100% | residual activity [43] 88% | residual activity [44] 96% | residual activity [45] 100%
